Eleven compounds from patent US20120165319A1, “INHIBITORS OF INTERLEUKIN-1 BETA CONVERTING ENZYME” (VERTEX PHARMACEUTICALS INCORPORATED, priority 1995, published 2012) can be followed below.

The target of one data set is T1, ICE (Homo sapiens, UniProt P29466).
T1 sequence (P29466 120-297 limits assumed): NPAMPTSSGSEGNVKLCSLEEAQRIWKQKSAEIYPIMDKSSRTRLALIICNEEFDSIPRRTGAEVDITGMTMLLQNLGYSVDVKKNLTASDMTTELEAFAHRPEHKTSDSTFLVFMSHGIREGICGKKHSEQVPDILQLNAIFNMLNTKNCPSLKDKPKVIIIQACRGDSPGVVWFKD
T1 sequence (P29466 317-404 limits assumed): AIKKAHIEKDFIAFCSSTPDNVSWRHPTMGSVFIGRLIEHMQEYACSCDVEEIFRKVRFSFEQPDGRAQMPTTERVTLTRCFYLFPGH
Nature of the data set: Enzyme assay with UV-visible substrate (visible ICE assay, Succinyl-Tyr-Val-Ala-Asp-pNitroanilide). The format is biochemical. In outline: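 Buffer, ICE and inhibitor in DMSO are combined and held 15 min at room temperature. Succinyl-Tyr-Val-Ala-Asp-pNA is then added and absorbance at 405-603 nm tracked for 20 min at 37° C.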

Data set [1] relates to IL-1β, human peripheral blood mononuclear cells (PBMC). As to the kind of experiment: PBMC cell assay: IL-1β assay with human PBMC or enriched adherent mononuclear cells, LPS-stimulated. The format is cell-based. In outline:
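Buffy-coat human PBMC at 6×10^6 cells/ml, or adherent monocytes enriched by 1 h adherence (2.5−3.0×10^5 cells/well), are given 5–6 compound dilutions bracketing the ICE Ki (final DMSO 0.1%) plus LPS at a final 5 ng/ml. They are incubated 16–18 hr at 37 °C, 5% CO2, and supernatant mature IL-1β is measured by ELISA, with duplicate cultures and duplicate ELISAs.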

Data set [2] can be described thus: In vivo rat clearance assay. The conditions noted are these: for clearance: plasma, iv. As to the method: In Vivo Rat Clearance Assay
Cannulations of the jugular and carotid vessels of rats under anesthesia were performed one day prior to the pharmacokinetic study. M. J. Free, R. A. Jaffee; ‘Cannulation techniques for the collection blood and other bodily fluids’; in: Animal Models; p. 480-495; N. J. Alexander, Ed.; Academic Press; (1978). Drug (10 mg/mL) was administered via the jugular vein in a vehicle usually consisting of: propylene glycol/saline, containing 100 mM sodium bicarbonate in a 1:1 ratio. Animals were dosed with 10-20 mg drug/kg and blood samples were drawn at 0, 2, 5, 7, 10, 15, 20, 30, 60, and 90 minutes from an indwelling carotid catheter. The blood was centrifuged to plasma and stored at −20° C. until analysis. Pharmacokinetic analysis of data was performed by non-linear regression using standard software such as RStrip (MicroMath Software, UT) and/or Pcnonlin (SCI Software, NC) to obtain clearance values.
Rat plasma was extracted with an equal volume of acetonitrile (containing 0.1% TFA). Samples were then centrifuged at approximately 1,000×g and the supernatant analyzed by gradient HPLC. A typical assay procedure is described below.
A standard curve was run at 20, 10, 5, 2 and 1 μg/mL concentrations.

Data set [3] relates to IL-1β production, LPS-challenged mice. As to the kind of experiment: In vivo acute assay for efficacy as anti-inflammatory agent: LPS-induced IL-1β production in mice. Also on record: species or system mouse. The conditions noted are these: for inhibition at 50 mg/kg: Mus musculus, po, read-out: percent inhibition of IL-1β production; for inhibition at 50 mg/kg / percent inhibition of IL-1β production: LPS challenged mice, compound PO, 50 mg/kg. Here is the method:
In Vivo Acute Assay for Efficacy as Anti-Inflammatory Agent
LPS-Induced IL-1β Production.
Efficacy of 214e and 217e was evaluated in CD1 mice (n=6 per condition) challenged with LPS (20 mg/kg IP). […] Blood was collected seven hours after LPS challenge. Serum IL-1β levels were measure by ELISA. […] Similar results were obtained in a second experiment. […] However, a clear dose response was not apparent.
Compounds 214e and 217e (50 mg/kg) were also administered by oral gavage to assess absorption.
The efficacy of analogs of 214e were also evaluated in LPS challenged mice after IP administration (FIG. 9) and PO administration (FIG. 10).
[…] The protocol is described in Example 7.

The test system of a further data set is IL-1β, human whole blood. Nature of the data set: Whole blood assay for IL-1β production. The format is cell-based. The following applies: read-out: Whole human blood IC50. In outline: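 Human whole blood collected on Na2EDTA was treated with serially diluted compound in saline and then stimulated with LPS at 5.0 ng/ml final, for 16-18 h at 30 °C, in duplicate or triplicate. Plasma IL-1β was measured by ELISA at 1:200 dilution.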

The mark [4] stands for this setting: Homo sapiens, PBMC, * = values obtained upon reassay.
The mark [5] stands for this setting: * = values obtained upon reassay.
[6] abbreviates: % inhibition of IL-β production, LPS-challenged mice, 50 mg/kg (Table 3).
Setting [7] is: 0 h, administered 0 h relative to time of LPS challenge.
The mark [8] stands for this setting: 2 h, administered −2 h relative to time of LPS challenge.
[9] abbreviates: 1 h, administered +1 h relative to time of LPS challenge.

Molecules are shown by their SMILES. Like-named read-outs stand apart in the source and are kept apart here.

Turning to `COc1ccccc1NC(=O)NN1CCC(=O)N2CCC[C@@H](C(=O)N[C@H](C=O)CC(=O)O)N2C1=O` [Compound 265d, [3S(4S)]3-[6,10-Dioxo-7-(2-methoxyphenylureido)-1,2,3,4,7,8,9,10-octahydro-6H-pyridazino[1,2-a][1,2,4]-triazepine-4-carboxamido]-4-oxobutanoic acid], on ICE (Table 17), the Ki was 500 nM. Besides, the IC50 in data set [1] (Homo sapiens, PBMC, Table 17) is 1500 nM. Further, the clearance in data set [2] (Table 17) was 35 mL/min/kg.
Consider `COc1cccc2nc(C(=O)[C@H](CC(=O)O)NC(=O)CN3C(=O)[C@@H](NC(=O)CCc4ccccc4)CN(C(=O)CCc4ccccc4)c4ccccc43)oc12` [Compound 108b, 4-(7-Methoxybenzoxazol-2-yl)-4-oxo-3(S)-{2-[2-oxo-5-(3-phenylpropionyl)-3(S)-(3-phenylpropionylamino)-2,3,4,5-tetrahydrobenzo[b][1,4]diazepin-1-yl]-acetylamino}butyric acid], for which the clearance in data set [2] (10-20 mg/kg) was > 100 mL/min/kg.
The compound `CS(=O)(=O)N[C@H]1CCC(=O)N2CCC[C@@H](C(=O)N[C@@H](CC(=O)O)C(=O)COc3cccnc3)N2C1=O` [Compound 283b, [3S(1S,9S)]3-(6,10-Dioxo-9-methanesulphonamido-1,2,3,4,7,8,9,10-octahydro-6H-pyridazino[1,2-a][1,2]diazepine-1-carboxamido)-4-oxo-5(3-pyridyloxy)pentanoic acid] gave a concentration for half-maximal inhibition (IC50) in data set [1] (Table 17) of 1750 nM. Further, in data set [2] (Table 17), the “Clearance Rat, i.v.” value was determined as 41 mL/min/kg.
With `O=C[C@H](CC(=O)O)NC(=O)[C@@H]1CCCN2C(=O)CC[C@H](NS(=O)(=O)c3ccccc3)C(=O)N12` [Compound 427], at ICE (Table 5), the Ki amounted to 180 nM. In data set [1] (setting [4]), this compound came in with an IC50 of 4500 nM. In data set [2] (10-20 mg/kg), this compound returned a clearance of 36 mL/min/kg.
On ICE (Table 17), `COc1cccc(NC(=O)NN2CCC(=O)N3CCC[C@@H](C(=O)N[C@H](C=O)CC(=O)O)N3C2=O)c1` [Compound 265c, [3S(4S)]3-[6,10-Dioxo-7-(3-methoxyphenylureido)-1,2,3,4,7,8,9,10-octahydro-6H-pyridazino[1,2-a][1,2,4]triazepine-4-carboxamido]-4-oxobutanoic acid] yielded a Ki of 1100 nM. In data set [1] (Homo sapiens, PBMC, Table 17), this compound displayed a half-inhibitory concentration (IC50) of 4500 nM. The same compound returned a clearance in data set [2] (Table 17) of 32 mL/min/kg.
`O=C[C@H](CC(=O)O)NC(=O)[C@@H]1CCCN2C(=O)CC[C@H](NC(=O)C(=O)c3ccccc3)C(=O)N12` [Compound 2002, [3S(1S,9S)]3-(9-Benzoylformylamino-6,10-dioxo-1,2,3,4,7,8,9,10-octahydro-6H-pyridazino[1,2-a][1,2]-diazepine-1-carboxamido)-4-oxobutanoic acid] had a Ki on ICE (Table 5) of 4 nM. Besides, the IC50 in data set [1] (setting [5]) was determined as 860 nM; in data set [1] (setting [4]), 810 nM. Also, in data set [3] (setting [6]), the “IP % Inhibition” value came to 78%. Further, the inhibition at 50 mg/kg in data set [3] (setting [7]) is 87%; in data set [3] (setting [8]) it was 5%. Further, the clearance in data set [2] (10-20 mg/kg) is 32 mL/min/kg.
`Nc1ccc(C(=O)N[C@H]2CCC(=O)N3CCC[C@@H](C(=O)N[C@H](C=O)CC(=O)O)N3C2=O)cc1Cl` [Compound 481] yielded a Ki at ICE (Table 5) of 1.2 nM. The IC50 in the data set with IL-1β, human whole blood (setting [5]) amounted to 500 nM; in the data set with IL-1β, human whole blood (Homo sapiens, * = values obtained upon reassay), 600 nM. Moreover, the inhibition at 50 mg/kg in data set [3] (setting [7]) amounted to 0%; in data set [3] (setting [8]), 27%. In data set [2] (10-20 mg/kg), the clearance worked out at 34 mL/min/kg.
Compound `CCOC(=O)CC(=COC(C)=O)NC(=O)[C@@H]1CCCN2C(=O)CC[C@H](NC(=O)c3ccccc3)C(=O)N12` [Compound 2100j, [3S(1S,9S)]3-(9-Benzoylamino-6,10-dioxo-1,2,3,4,7,8,9,10-octahydro-6H-pyridazino[1,2-a][1,2]diazepine-1-carboxamido)-4-acetoxy-3-butenoic acid ethyl ester] showed a Ki at ICE (Table 17) of 30000 nM. In addition, the half-maximal inhibitory concentration (IC50) in the data set with IL-1β, human whole blood (Homo sapiens, Table 17) stood at 12000 nM. Moreover, the inhibition at 50 mg/kg in data set [3] (setting [7]) was found to be 0%; in data set [3] (setting [9]), 33%; in data set [3] (1 h, administered −1 h relative to time of LPS challenge), 41%; in data set [3] (setting [8]), 48%.
At ICE (Table 5), `COc1ccc(C(=O)N[C@H]2CCC(=O)N3CCC[C@@H](C(=O)N[C@H](C=O)CC(=O)O)N3C2=O)cc1` [Compound 452] had a Ki of 4.5 nM. Moreover, the IC50 in data set [1] (setting [5]) came out at 800 nM; in data set [1] (setting [4]), 600 nM. For the same compound, the inhibition at 50 mg/kg came out at 89% in data set [3] (setting [7]), 70% in data set [3] (setting [9]) and 28% in data set [3] (setting [8]). Moreover, the clearance in data set [2] (10-20 mg/kg) stood at 27.3 mL/min/kg.
At ICE (Table 5), `O=C[C@H](CC(=O)O)NC(=O)[C@@H]1CCCN2C(=O)CC[C@H](NC(=O)c3ccc4ncccc4c3)C(=O)N12` [Compound 438] returned a Ki of 28 nM. Moreover, the IC50 in data set [1] (setting [4]) worked out at 1000 nM. In addition, the “IP % Inhibition” value in data set [3] (setting [6]) was determined as 40%. Besides, the “POS Inhibition” value in data set [3] (% inhibition of IL-β production, LPS-challenged mice, PO, 50 mg/kg (Table 3)) was found to be 13%. For the same compound, in data set [2] (10-20 mg/kg), the clearance came out at 22 mL/min/kg.
As for `CC(=O)Nc1cccc(C(=O)N[C@H]2CCC(=O)N3CCC[C@@H](C(=O)N[C@H]4CC(=O)OC4OCc4ccccc4)N3C2=O)c1` (mixture of isomers) [Compound 213o, [1S,9S(2RS,3S)]9-[(3-Acetamido)benzamido]-N-(2-benzyloxy-5-oxotetrahydrofuran-3-yl)-6,10-dioxo-1,2,3,4,7,8,9,10-octahydro-6H-pyridazino[1,2-a][1,2]diazepine-1-carboxamide], the IC50 worked out at 5000 nM in data set [1] (Table 17) and 3300 nM in the data set with IL-1β, human whole blood (Table 17). Also, the “percent inhibition of IL-1β production” value in data set [3] (administered 0 h relative to time of LPS challenge) is listed as 8%; in data set [3] (administered −2 h relative to time of LPS challenge), 4%.

As a reminder, the Ki is a measure of affinity in units of concentration, obtained from inhibition or displacement. A lower Ki goes with tighter binding. For orientation: IC50 means the concentration that inhibits the measured activity by half. As usually defined, the clearance is a measure of how efficiently the substance is removed, as volume per time. A low value points to a low capacity for elimination. By inhibition is commonly meant how much of the control response was suppressed.
